Assays:
Format in all cases: cell-based, human
[1] = tested on: SW620; experiment: Cell viability in 3D non-adherent and 2D adherent culture, SW620; conditions: SW620, non-adherent conditions, Nec-1 10 μM
Protocol: (§1) FIGS. 14A-D. Effect of Locked Nucleic Acids targeting HSATII on TP53 mutant Colorectal Cancer cell lines. […] Error bars represent standard deviation. P-value was calculated using student's two tailed t-test. *represents P<0.05.
(§2) Cells were transfected with LNAs either targeting HSATII or with non-specific control Locked Nucleic Acids at 500 nM concentrations using Lipofectamine 2000 according to manufacturer recommended conditions. Cells were trypsinized 24 hours after transfection and seeded at concentration of 1000 cells per well in 96 well plates either in 2 dimensional or 3 dimensional culture conditions. For 2D conditions, the cells were transferred to cell culture treated 96 well plates and grown in RPMI+10% FBS. For 3D conditions, cells were grown in (RPMI+10% FBS+) in ultra-low attachment 96 well plates.

[2] = tested on: DLD1; experiment: Cell viability in 3D non-adherent and 2D adherent culture, DLD1
Protocol: as §1, §2

[3] = tested on: HCT8; experiment: Cell growth in 3D and 2D culture, HCT8 (with or without shRNA TP53 knockdown)
Protocol: (§3) FIGS. 15A-D. Effect of Locked Nucleic Acids targeting HSATII on TP53 wild type Colorectal Cancer cell lines. […] Error bars represent standard deviation. P-value was calculated using student's two tailed t-test.
FIGS. 18A-F. TP53 knockdown sensitizes HCT8 cells to HSATII targeted Locked Nucleic Acids and Reverse Transcriptase inhibition. HCT8 colorectal cancer cells are resistant to the reverse transcriptase inhibitor ddC under 3D (A) and 2D (D) growth conditions. shRNA mediated knockdown of TP53 sensitizes the cells to reverse transcriptase inhibition under 3D (B-C), but not 2D (E-F) growth conditions. TP53 knockdown sensitizes HCT8 cells to HSATII targeted Locked Nucleic Acids under 3D (B-C), but not 2D (E-F) growth conditions. Error bars represent standard deviation. P-value was calculated using student's two tailed t-test. *represents P<0.05, **represents P<0.01.
as §2
(§4) Stable cell lines carrying either one of two shRNAs targeting TP53, or a non-target shRNA using lentiviral infection, were generated.

[4] = tested on: HCT116 cells; experiment: Proliferation assay (CellTiter-Glo), HCT116; conditions: cells without endogenous HSATII expression, adherent growth, ddC 100 μM vs DMSO
Protocol: FIG. 8. Proliferation assay of DMSO- or ddC-treated COLO205 (top) and HCT116 (bottom) cells. Cells were seeded at a density of 5×10^2 cells/well in a 96-well plate and quantified daily using CellTiter-Glo luminescent cell viability assay. For proliferation assays, cells were seeded at a density of 5×10^2 cells/well in a 96-well plate (Corning) in presence of DMSO/ddC (100 μM) or one day after transfection with control/[…] antisense oligonucleotides. Daily quantification was performed using CellTiter-Glo luminescent cell viability assay (Promega) with a SpectraMax M5 microplate reader (Molecular Devices).

[5] = tested on: HSATII-chr10 locus; experiment: qPCR analysis on HSATII-chr10 locus after DNase I or RNase A treatment of COLO205 extracts; conditions: COLO205 cells, ddC 100 μM for two weeks vs DMSO
Excerpt: FIGS. 3A-C. HSATII RNA-to-DNA conversion occurs through a reverse transcription mechanism. (A) qPCR analysis on HSATII-chr10 locus following DNAse I or RNase A treatment and reverse transcription of extracts obtained from COLO205 cells treated with DMSO or 2′, 3′-dideoxycytidine (ddC). (B) RIP lysates prepared from SW620 2D cultures or xenografts were immunoprecipitated with hTERT or IgG antibody, reverse transcribed and validated by qPCR for HSATII and TERC RNA enrichment. (C) qPCR analysis on HSATII-chr10 locus in COLO205 extracts 72 h after non-targeting (siNT) or TERT-targeting (siTERT) siRNA transfection. For all charts, values represent average of at least three independent experiments ±SEM. *P<0.05 (Student's t test).
All colon cancer cell lines were cultured in RPMI-1640+10% FBS+1% Pen/Strep (Gibco/Life Technologies). DMEM with the same supplements was used for 293T cells. For drug treatment, cells were cultured in presence of either DMSO or 100 μM 2′, 3′-dideoxycytidine (ddC, Sigma) for two weeks. […]
RNA was reverse transcribed using a SuperScript III First-Strand Synthesis kit (Invitrogen/Life Technologies) and cDNA was analyzed by qPCR using either Power SYBR-Green PCR Maser Mix or TaqMan Universal Master Mix on an ABI/PRISM 7500 platform (all reagents were from Applied Biosystems/Life Technologies). […]

[6] = tested on: HCT116; experiment: Cell growth in 3D and 2D culture, HCT116 (with or without shRNA TP53 knockdown); conditions: for susceptibility to ddC: HCT116 with shRNA TP53 knockdown
Protocol: as §3
FIGS. 19A-F. HCT116 cells are resistant to HSATII targeting and Reverse Transcriptase inhibition. […] Error bars represent standard deviation. P-value was calculated using student's two tailed t-test.
as §2, §4

[7] = tested on: COLO205 cells; experiment: Proliferation assay (CellTiter-Glo), COLO205
Protocol: FIG. 8. Proliferation assay of DMSO- or ddC-treated COLO205 (top) and HCT116 (bottom) cells. Cells were seeded at a density of 5×10^2 cells/well in a 96-well plate and quantified daily using CellTiter-Glo luminescent cell viability assay.
For proliferation assays, cells were seeded at a density of 5×10^2 cells/well in a 96-well plate (Corning) in presence of DMSO/ddC (100 μM) or one day after transfection with control/HSATII antisense oligonucleotides. Daily quantification was performed using CellTiter-Glo luminescent cell viability assay (Promega) with a SpectraMax M5 microplate reader (Molecular Devices).
50 nM ON-TARGETplus Non-targeting pool siRNA (Thermo Scientific) and Mission Pre-designed TERT siRNAs (Sigma Aldrich) or 500 nM Negative Control and HSATII LNA antisense oligonucleotides (Exiqon) were electroporated into COLO205 cells according to the Neon Transfection System (Invitrogen/Life Technology) instructions using the following conditions: 1600V; pulse width 10; 3 pulses. 500 nM Negative Control/HSATII LNA antisense oligonucleotides were transfected in HCT116 and SW620 cells using Lipofectamine 2000 (Invitrogen/Life Technologies) according to the manufacturer's instructions.

CN1C(=O)C(Cc2c[nH]c3ccccc23)NC1=S (stereo not drawn) [Nec-1, Necrostatin-1]
rescue of HSATII LNA-induced growth inhibition [1]: rescued | rescue of HSATII LNA-induced growth inhibition ([2]; DLD1, non-adherent conditions, Nec-1 10 μM): rescued

Nc1ccn([C@H]2CC[C@@H](CO)O2)c(=O)n1 [ddC, 2′, 3′-dideoxycytidine]
sensitivity to ddC ([3]; HCT8, 2D growth conditions): resistant | sensitivity to ddC ([3]; HCT8, 3D growth conditions): resistant | growth inhibition ([3]; HCT8 with shRNA TP53 knockdown, 3D culture, ddC): significant growth inhibition | cell proliferation [4]: no effect | HSATII RNA species [5]: increasing | levels of endogenous HSATII rdDNA [5]: reduced | sensitivity to ddC ([6]; HCT116, 2D growth conditions): resistant | sensitivity to ddC ([6]; HCT116, 3D growth conditions): resistant | susceptibility to ddC ([6]; 2D culture): resistance | susceptibility to ddC ([6]; 3D culture): resistance | cell proliferation ([7]; COLO205, ddC 100 μM vs DMSO): suppressed | growth inhibition ([2]; DLD1, 3 dimensional culture, ddC 5 μM): significant growth inhibition

SEQ ID NO:24: Locked nucleic acids (LNA) probes commercially purchased from Exiqon (GATTCCATTCGATGAT) specifically targeting HSATII (LNA-modified, pattern not given here)
cell proliferation ([7]; COLO205, 500 nM LNA antisense oligonucleotide vs negative control, five days): affected
